# Where “and” joins values, the source holds several entries; their conditions need not be identical. Equal entries are not always repeated. Square brackets hold non-standard residues; d marks the D form. Peptide text beside a SMILES is read from it. * marks the point of attachment. NαAmidinoTrp = N=C(N)N[C@@H](Cc1c[nH]c2ccccc12)C(=O)*; Propanoyl(3-indol-3-yl) = O=C(CCc1c[nH]c2ccccc12)*; Diphenylacetyl = O=C(C(c1ccccc1)c1ccccc1)*; 1Nal = N[C@@H](Cc1cccc2ccccc12)C(=O)O; Arg(Me) = CNC(=N)NCCC[C@H](N)C(=O)O; Hydrocinnamoyl = O=C(CCc1ccccc1)*; X2 = O=C(Cc1c[nH]c2ccccc12)*; X6 = O=C(c1c[nH]c2ccccc12)*; Hexanoyl = CCCCCC(=O)*; azaGly = NNC(=O)O
# What was measured:
# [1] = target: T1, hOT7T175 (Homo sapiens, UniProt Q969F8, L364H); assay: hOT7T175 receptor binding activity: binding inhibition of Cy-5-labeled metastin (40-54) on hOT7T175-expressed CHO cells; design: expressed in transfected cells; host or cells: CHO cells
# T1 sequence (Q969F8 whole entry L364H): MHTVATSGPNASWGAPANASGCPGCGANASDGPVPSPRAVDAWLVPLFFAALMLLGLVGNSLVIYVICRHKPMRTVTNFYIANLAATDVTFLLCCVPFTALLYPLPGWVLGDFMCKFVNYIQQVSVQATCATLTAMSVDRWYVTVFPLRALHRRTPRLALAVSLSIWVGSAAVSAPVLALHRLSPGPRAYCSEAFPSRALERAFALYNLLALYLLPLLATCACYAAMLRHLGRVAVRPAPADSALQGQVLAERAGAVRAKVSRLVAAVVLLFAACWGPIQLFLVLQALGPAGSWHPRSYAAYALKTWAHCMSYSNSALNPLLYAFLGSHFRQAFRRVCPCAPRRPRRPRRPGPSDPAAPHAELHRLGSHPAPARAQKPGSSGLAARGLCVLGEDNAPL
# [2] = target: T1, hOT7T175; assay: Intracellular Ca ion level-increasing activity using FLIPR in hOT7T175/CHO; type: cell-based; design: expressed in transfected cells; host or cells: CHO/dhfr- cells, obtained from ATCC; conditions: relative, Metastin (1-54) = 1
SMILES,IC50 [1] [nM],Specific Activity (intracellular Ca ion level-increasing activity) [2]
CCNC(=N)NCCC[C@H](NC(=O)[C@H](CC(C)C)NC(=O)CNC(=O)[C@H](Cc1ccccc1)NC(=O)[C@H](CO)NC(=O)[C@H](CC(N)=O)NC(=O)[C@H](Cc1c[nH]c2ccccc12)NC(=O)[C@H](CC(N)=O)NC(=O)[C@@H](N)Cc1ccc(O)cc1)C(=O)N[C@@H](Cc1ccccc1)C(N)=O [Compound No. 220],330,5
"CNC(=N)NCCC[C@H](NC(=O)[C@H](CC(C)C)NC(=O)NNC(=O)[C@H](Cc1ccccc1)NC(=O)[C@H](CO)NC(=O)[C@H](CC(N)=O)NC(=O)[C@H](Cc1c[nH]c2ccccc12)NC(=O)[C@H](N)Cc1ccc(O)cc1)C(=O)N[C@@H](Cc1ccccc1)C(N)=O [Compound No. 222, D-Tyr-Trp-Asn-Ser-Phe-AzaGly-Leu-Arg(Me)-Phe-NH2] (H-[dY]WNSF[azaGly]L[Arg(Me)]F-NH2)",33,5
"CNC(=N)NCCC[C@H](NC(=O)[C@H](CC(C)C)NC(=O)CNC(=O)[C@H](Cc1ccccc1)NC(=O)[C@H](CO)NC(=O)[C@H](CC(N)=O)NC(=O)[C@@H](Cc1c[nH]c2ccccc12)NC(=O)[C@H](N)Cc1ccc(O)cc1)C(=O)N[C@@H](Cc1ccccc1)C(N)=O [Compound No. 224, D-Tyr-D-Trp-Asn-Ser-Phe-Gly-Leu-Arg(Me)-Phe-NH2] (H-[dY][dW]NSFGL[Arg(Me)]F-NH2)",140,2 and 1
CC[C@H](C)[C@H](NC(=O)[C@H](N)Cc1ccc(O)cc1)C(=O)N[C@@H](CC(N)=O)C(=O)N[C@@H](CO)C(=O)N[C@@H](Cc1ccccc1)C(=O)NCC(=O)N[C@@H](CC(C)C)C(=O)N[C@@H](CCCNC(=N)NC)C(=O)N[C@@H](Cc1ccccc1)C(N)=O [Compound No. 228] (H-[dY]INSFGL[Arg(Me)]F-NH2),40,5
"CC[C@H](C)[C@H](NC(=O)[C@H](CC(N)=O)NC(=O)[C@H](N)Cc1ccc(O)cc1)C(=O)N[C@@H](CC(N)=O)C(=O)N[C@@H](CO)C(=O)N[C@@H](Cc1ccccc1)C(=O)NNC(=O)N[C@@H](CC(C)C)C(=O)N[C@@H](CCCNC(=N)NC)C(=O)N[C@@H](Cc1ccccc1)C(N)=O [Compound No. 233, D-Tyr-Asn-Ile-Asn-Ser-Phe-AzaGly-Leu-Arg(Me)-Phe-NH2] (H-[dY]NINSF[azaGly]L[Arg(Me)]F-NH2)",23,1
"CNC(=N)NCCC[C@H](NC(=O)[C@H](CC(C)C)NC(=O)NNC(=O)[C@H](Cc1ccccc1)NC(=O)[C@H](CO)NC(=O)[C@H](CC(N)=O)NC(=O)[C@H](C)NC(=O)[C@H](CC(N)=O)NC(=O)[C@H](N)Cc1ccc(O)cc1)C(=O)N[C@@H](Cc1ccccc1)C(N)=O [Compound No. 235, D-Tyr-Asn-Ala-Asn-Ser-Phe-AzaGly-Leu-Arg(Me)-Phe-NH2] (H-[dY]NANSF[azaGly]L[Arg(Me)]F-NH2)",100,1
"CNC(=N)NCCC[C@H](NC(=O)[C@H](CC(C)C)NC(=O)NNC(=O)[C@H](Cc1ccccc1)NC(=O)[C@H](CO)NC(=O)[C@H](CC(N)=O)NC(=O)[C@@H](Cc1c[nH]c2ccccc12)NC(=O)[C@H](CC(N)=O)NC(=O)[C@H](N)Cc1ccc(O)cc1)C(=O)N[C@@H](Cc1ccccc1)C(N)=O [Compound No. 236, D-Tyr-Asn-D-Trp-Asn-Ser-Phe-AzaGly-Leu-Arg(Me)-Phe-NH2]",42,2
"CNC(=N)NCCC[C@H](NC(=O)[C@H](CC(C)C)NC(=O)NNC(=O)[C@H](Cc1ccccc1)NC(=O)[C@H](CO)NC(=O)[C@H](CC(N)=O)NC(=O)[C@H](Cc1c[nH]c2ccccc12)NC(=O)[C@@H](CC(N)=O)NC(=O)[C@H](N)Cc1ccc(O)cc1)C(=O)N[C@@H](Cc1ccccc1)C(N)=O [Compound No. 237, D-Tyr-D-Asn-Trp-Asn-Ser-Phe-AzaGly-Leu-Arg(Me)-Phe-NH2]",27,3
"CNC(=N)NCCC[C@H](NC(=O)[C@H](CC(C)C)NC(=O)NNC(=O)[C@H](Cc1ccccc1)NC(=O)[C@H](CO)NC(=O)[C@H](CC(N)=O)NC(=O)[C@@H](Cc1c[nH]c2ccccc12)NC(=O)[C@@H](CC(N)=O)NC(=O)[C@H](N)Cc1ccc(O)cc1)C(=O)N[C@@H](Cc1ccccc1)C(N)=O [Compound No. 238, D-Tyr-D-Asn-D-Trp-Asn-Ser-Phe-AzaGly-Leu-Arg(Me)-Phe-NH2]",49,1
"CNC(=N)NCCC[C@H](NC(=O)[C@H](CC(C)C)NC(=O)NNC(=O)[C@H](Cc1ccccc1)NC(=O)[C@H](CO)NC(=O)[C@H](CC(N)=O)NC(=O)[C@H](Cc1cccc2ccccc12)NC(=O)[C@H](CC(N)=O)NC(=O)[C@H](N)Cc1ccc(O)cc1)C(=O)N[C@@H](Cc1ccccc1)C(N)=O [Compound No. 245, D-Tyr-Asn-Nal(1)-Asn-Ser-Phe-AzaGly-Leu-Arg(Me)-Phe-NH2] (H-[dY]N[1Nal]NSF[azaGly]L[Arg(Me)]F-NH2)",98,1
"CNC(=N)NCCC[C@H](NC(=O)[C@H](CC(C)C)NC(=O)NNC(=O)[C@H](Cc1ccccc1)NC(=O)[C@H](CO)NC(=O)[C@H](CC(N)=O)NC(=O)CCc1c[nH]c2ccccc12)C(=O)N[C@@H](Cc1ccccc1)C(N)=O [Compound No. 260, 3-(3-Indolyl)propionyl-Asn-Ser-Phe-AzaGly-Leu-Arg(Me)-Phe-NH2] ({Propanoyl(3-indol-3-yl)}-NSF[azaGly]L[Arg(Me)]F-NH2)",320,5
"CNC(=N)NCCC[C@H](NC(=O)[C@H](CC(C)C)NC(=O)NNC(=O)[C@H](Cc1ccccc1)NC(=O)[C@H](CO)NC(=O)[C@H](CC(N)=O)NC(=O)c1c[nH]c2ccccc12)C(=O)N[C@@H](Cc1ccccc1)C(N)=O [Compound No. 265, Indole-3-carbonyl-Asn-Ser-Phe-AzaGly-Leu-Arg(Me)-Phe-NH2] (X6-NSF[azaGly]L[Arg(Me)]F-NH2)",95,3
"CNC(=N)NCCC[C@H](NC(=O)[C@H](CC(C)C)NC(=O)NNC(=O)[C@H](Cc1ccccc1)NC(=O)[C@H](CO)NC(=O)[C@H](CC(N)=O)NC(=O)Cc1c[nH]c2ccccc12)C(=O)N[C@@H](Cc1ccccc1)C(N)=O [Compound No. 266, Indol-3-acetyl-Asn-Ser-Phe-AzaGly-Leu-Arg(Me)-Phe-NH2] (X2-NSF[azaGly]L[Arg(Me)]F-NH2)",230,2
"CNC(=N)NCCC[C@H](NC(=O)[C@H](CC(C)C)NC(=O)NNC(=O)[C@H](Cc1ccccc1)NC(=O)[C@H](CO)NC(=O)[C@H](CC(N)=O)NC(=O)C(c1ccccc1)c1ccccc1)C(=O)N[C@@H](Cc1ccccc1)C(N)=O [Compound No. 268, Diphenylacetyl-Asn-Ser-Phe-AzaGly-Leu-Arg(Me)-Phe-NH2] (Diphenylacetyl-NSF[azaGly]L[Arg(Me)]F-NH2)",550,1
"CNC(=N)NCCC[C@H](NC(=O)[C@H](CC(C)C)NC(=O)NNC(=O)[C@H](Cc1ccccc1)NC(=O)[C@H](CO)NC(=O)[C@H](CC(N)=O)NC(=O)CCc1ccccc1)C(=O)N[C@@H](Cc1ccccc1)C(N)=O [Compound No. 269, 3-Phenylpropionyl-Asn-Ser-Phe-AzaGly-Leu-Arg(Me)-Phe-NH2] (Hydrocinnamoyl-NSF[azaGly]L[Arg(Me)]F-NH2)",470,3
"CNC(=N)NCCC[C@H](NC(=O)[C@H](CC(C)C)NC(=O)NNC(=O)[C@H](Cc1ccccc1)NC(=O)[C@H](Cc1ccccc1)NC(=O)[C@H](CO)NC(=O)[C@H](CC(N)=O)NC(=O)[C@H](Cc1ccccc1)NC(=O)[C@H](CC(N)=O)NC(=O)[C@H](N)Cc1ccc(O)cc1)C(=O)N[C@@H](Cc1ccccc1)C(N)=O [Compound No. 270, D-Tyr-Asn-Phe-Asn-Ser-Phe-Phe-AzaGly-Leu-Arg(Me)-Phe-NH2] (H-[dY]NFNSFF[azaGly]L[Arg(Me)]F-NH2)",15,1
"CNC(=N)NCCC[C@H](NC(=O)[C@H](CC(C)C)NC(=O)NNC(=O)[C@H](Cc1ccccc1)NC(=O)[C@H](CO)NC(=O)[C@H](CC(N)=O)NC(=O)[C@@H](N)Cc1c[nH]c2ccccc12)C(=O)N[C@@H](Cc1ccccc1)C(N)=O [Compound No. 271, Trp-Asn-Ser-Phe-AzaGly-Leu-Arg(Me)-Phe-NH2] (H-WNSF[azaGly]L[Arg(Me)]F-NH2; N-terminus assumed)",120,1
"CNC(=N)NCCC[C@H](NC(=O)[C@H](CC(C)C)NC(=O)NNC(=O)[C@H](Cc1ccccc1)NC(=O)[C@H](CO)NC(=O)[C@H](CC(N)=O)NC(=O)[C@H](Cc1c[nH]c2ccccc12)NC(C)=O)C(=O)N[C@@H](Cc1ccccc1)C(N)=O [Compound No. 272, Acetyl-Trp-Asn-Ser-Phe-AzaGly-Leu-Arg(Me)-Phe-NH2] (Ac-WNSF[azaGly]L[Arg(Me)]F-NH2)",540,2
"CNC(=N)NCCC[C@H](NC(=O)[C@H](CC(C)C)NC(=O)NNC(=O)[C@H](Cc1ccccc1)NC(=O)[C@H](CO)NC(=O)[C@H](CC(N)=O)NC(=O)[C@H](Cc1c[nH]c2ccccc12)NC(=N)N)C(=O)N[C@@H](Cc1ccccc1)C(N)=O [Compound No. 273, Amidino-Trp-Asn-Ser-Phe-AzaGly-Leu-Arg(Me)-Phe-NH2] (NαAmidinoTrp-NSF[azaGly]L[Arg(Me)]F-NH2)",300,5
"CCCCCC(=O)N[C@@H](CC(N)=O)C(=O)N[C@@H](CO)C(=O)N[C@@H](Cc1ccccc1)C(=O)NNC(=O)N[C@@H](CC(C)C)C(=O)N[C@@H](CCCNC(=N)NC)C(=O)N[C@@H](Cc1ccccc1)C(N)=O [Compound No. 277, n-Hexanoyl-Asn-Ser-Phe-AzaGly-Leu-Arg(Me)-Phe-NH2] (Hexanoyl-NSF[azaGly]L[Arg(Me)]F-NH2)",54,2

# Reference: patent publication US8361968B2 (Takeda Pharmaceutical Company Limited, priority 2002, dated 2013)
